Experimental findings from ChEMBL document CHEMBL1133325, “Synthesis and biological activity of fluoro-substituted pyrrolo[2,3-d]pyrimidines: the development of potential positron emission tomography imaging agents for the corticotropin-releasing hormone type 1 receptor” (Bioorg Med Chem Lett, 2000) are described below.

Broadly, the pKi is the negative decadic logarithm of the Ki, by convention in mol/L.

Molecules are shown by their SMILES. pKi: −log10 of the molar value.

The assay addresses T1, Corticotropin-releasing factor receptor 1 (Rattus norvegicus, UniProt P35353).
T1 sequence (P35353 whole entry): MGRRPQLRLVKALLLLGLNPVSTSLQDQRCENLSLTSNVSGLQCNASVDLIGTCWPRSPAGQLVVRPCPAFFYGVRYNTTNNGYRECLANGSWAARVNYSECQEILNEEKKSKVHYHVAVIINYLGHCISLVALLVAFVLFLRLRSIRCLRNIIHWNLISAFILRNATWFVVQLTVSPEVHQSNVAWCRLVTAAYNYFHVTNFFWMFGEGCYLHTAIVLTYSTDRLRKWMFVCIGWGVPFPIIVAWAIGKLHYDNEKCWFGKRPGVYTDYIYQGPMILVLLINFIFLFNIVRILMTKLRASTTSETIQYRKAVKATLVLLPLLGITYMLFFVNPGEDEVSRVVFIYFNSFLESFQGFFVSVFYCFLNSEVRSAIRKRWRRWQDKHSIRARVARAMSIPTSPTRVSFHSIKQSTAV
In words: Compound was tested in vitro for its ability to displace [125 I]Tyr-sauvagine from corticotropin-releasing hormone type 1 receptor in rat cerebellum. The class given is tissue-based.
The molecule `CCCN(CCCCF)c1nc(C)nc2c1c(C)c(C)n2-c1c(C)cc(C)cc1C` showed a negative logarithm of the Ki (pKi) of 9.04.

`CCCCN(CCCCF)c1nc(C)nc2c1c(C)c(C)n2-c1c(C)cc(C)cc1C` had a negative-log Ki (pKi) of 8.00.

Consider `CCN(CCCCF)c1nc(C)nc2c1c(C)c(C)n2-c1c(C)cc(C)cc1C`, for which the pKi was 8.46. Compared with the last molecule, the pKi is 0.46 log units higher.

Consider `Cc1cc(C)c(-n2c(C)c(C)c3c(N4CCN(CCF)CC4)nc(C)nc32)c(C)c1`, for which the pKi was less than 6.00.

Molecule `CCCN(CC1CC1)c1nc(C)nc2c1c(C)c(C)n2-c1c(C)cc(C)cc1C` gave a pKi of 8.64.

As for `Cc1cc(C)c(-n2c(C)c(C)c3c(N(CCCF)CC4CC4)nc(C)nc32)c(C)c1`, the pKi is 7.52.

The molecule `CCCCN(CC)c1nc(C)nc2c1c(C)c(C)n2-c1c(C)cc(C)cc1C` [ANTALARMIN] had a pKi of 8.60.
